According to the CheMixHub ionic liquid set:
± gives the uncertainty stated by the source.

Assay: xn = mol fraction of the nth substance listed

OC[C@H]1O[C@H](O[C@H]2[C@H](O)[C@@H](O)C(O)O[C@@H]2CO)[C@H](O)[C@@H](O)[C@@H]1O (some centres not stated) + CCCC[n+]1ccn(C)c1.F[P-](F)(F)(F)(F)F + O
viscosity [mPa·s], 100 kPa
Conditions	293.15 K	298.15 K	303.15 K	308.15 K	313.15 K
x2 = 0, x1 = 0.0001791	1.019 ± 0.042	0.9 ± 0.037	0.807 ± 0.033	0.721 ± 0.03	0.657 ± 0.027
x2 = 0, x1 = 0.0005383	1.027 ± 0.042	0.911 ± 0.037	0.816 ± 0.033	0.733 ± 0.03	0.667 ± 0.027
x2 = 0, x1 = 0.0008971	1.038 ± 0.043	0.922 ± 0.038	0.827 ± 0.034	0.742 ± 0.03	0.675 ± 0.028
x2 = 0, x1 = 0.001255	1.049 ± 0.043	0.931 ± 0.038	0.832 ± 0.034	0.747 ± 0.031	0.68 ± 0.028
x2 = 0, x1 = 0.001615	1.059 ± 0.043	0.94 ± 0.039	0.84 ± 0.034	0.755 ± 0.031	0.686 ± 0.028
x2 = 0.0001835, x1 = 0.001259	1.059 ± 0.043	0.947 ± 0.039	0.86 ± 0.035	0.775 ± 0.032	0.69 ± 0.028
x2 = 0.0001835, x1 = 0.00162	1.07 ± 0.044	0.956 ± 0.039	0.866 ± 0.036	0.782 ± 0.032	0.696 ± 0.029
x2 = 0.0001836, x1 = 0.0008988	1.049 ± 0.043	0.937 ± 0.038	0.851 ± 0.035	0.768 ± 0.032	0.684 ± 0.028
x2 = 0.0001837, x1 = 0.0001798	1.03 ± 0.042	0.92 ± 0.038	0.834 ± 0.034	0.751 ± 0.031	0.667 ± 0.027
x2 = 0.0001837, x1 = 0.0005398	1.037 ± 0.043	0.926 ± 0.038	0.841 ± 0.035	0.76 ± 0.031	0.676 ± 0.028
x2 = 0.0005376, x1 = 0.001627	1.084 ± 0.044	0.97 ± 0.04	0.873 ± 0.036	0.783 ± 0.032	0.709 ± 0.029
x2 = 0.0005378, x1 = 0.001265	1.074 ± 0.044	0.96 ± 0.039	0.864 ± 0.035	0.776 ± 0.032	0.702 ± 0.029
x2 = 0.000538, x1 = 0.0009039	1.064 ± 0.044	0.949 ± 0.039	0.856 ± 0.035	0.769 ± 0.032	0.695 ± 0.029
x2 = 0.0005382, x1 = 0.0005419	1.052 ± 0.043	0.939 ± 0.039	0.846 ± 0.035	0.76 ± 0.031	0.688 ± 0.028
x2 = 0.0005384, x1 = 0.0001809	1.043 ± 0.043	0.93 ± 0.038	0.837 ± 0.034	0.752 ± 0.031	0.68 ± 0.028
x2 = 0.0008951, x1 = 0.001637	1.098 ± 0.045	0.976 ± 0.04	0.878 ± 0.036	0.792 ± 0.033	0.713 ± 0.029
x2 = 0.0008955, x1 = 0.001273	1.089 ± 0.045	0.967 ± 0.04	0.869 ± 0.036	0.784 ± 0.032	0.707 ± 0.029
x2 = 0.0008958, x1 = 0.0009101	1.08 ± 0.044	0.959 ± 0.039	0.861 ± 0.035	0.778 ± 0.032	0.701 ± 0.029
x2 = 0.0008961, x1 = 0.0005458	1.064 ± 0.044	0.946 ± 0.039	0.851 ± 0.035	0.768 ± 0.032	0.693 ± 0.028
x2 = 0.0008964, x1 = 0.0001816	1.057 ± 0.043	0.938 ± 0.038	0.842 ± 0.035	0.761 ± 0.031	0.685 ± 0.028
x2 = 0.00126, x1 = 0.0009162	1.084 ± 0.044	0.969 ± 0.04	0.876 ± 0.036	0.79 ± 0.032	0.708 ± 0.029
x2 = 0.00126, x1 = 0.001282	1.096 ± 0.045	0.979 ± 0.04	0.883 ± 0.036	0.797 ± 0.033	0.714 ± 0.029
x2 = 0.00126, x1 = 0.001648	1.106 ± 0.045	0.989 ± 0.041	0.893 ± 0.037	0.804 ± 0.033	0.721 ± 0.03
x2 = 0.001261, x1 = 0.000183	1.061 ± 0.044	0.948 ± 0.039	0.858 ± 0.035	0.774 ± 0.032	0.693 ± 0.028
x2 = 0.001261, x1 = 0.0005491	1.071 ± 0.044	0.959 ± 0.039	0.866 ± 0.036	0.781 ± 0.032	0.7 ± 0.029

CCCCCCCO + CCCC[n+]1ccn(C)c1.O=S(=O)([N-]S(=O)(=O)C(F)(F)F)C(F)(F)F
298 K, 100 kPa
Conditions	viscosity [mPa·s]
x2 = 0	5.956 ± 0.065
x2 = 0.7975	33.43 ± 0.76
x2 = 0.9013	40.9 ± 1

CCCC[n+]1ccn(C)c1.N#C[S-] + CCCC[n+]1ccn(C)c1.O=S(=O)([N-]S(=O)(=O)C(F)(F)F)C(F)(F)F
100 kPa
Conditions	viscosity [mPa·s]
283.15 K, x2 = 0.25	133.5 ± 7
288.15 K, x2 = 0	104.5 ± 5.4

CCCO + CCCC[n+]1ccn(C)c1.O=S(=O)([N-]S(=O)(=O)C(F)(F)F)C(F)(F)F
Conditions	viscosity [mPa·s]
298 K, 100 kPa, x2 = 0	1.929 ± 0.011

ClCCCl + CCCC[n+]1ccn(C)c1.O=S(=O)([N-]S(=O)(=O)C(F)(F)F)C(F)(F)F
Conditions	electrical conductivity [S/m]
294.5 K, 100 kPa, x2 = 0.02555	0.68 ± 0.07

OCC(F)(F)F + CCCC[n+]1ccn(C)c1.O=S(=O)([N-]S(=O)(=O)C(F)(F)F)C(F)(F)F
101 kPa
Conditions	viscosity [mPa·s]
278.15 K, x1 = 0.2626	65.4 ± 1.3
278.15 K, x1 = 0.4753	30.28 ± 0.61
278.15 K, x1 = 0.6153	16.99 ± 0.34
278.15 K, x1 = 0.7568	9.09 ± 0.18
293.15 K, x1 = 0.6153	10.18 ± 0.21
298.15 K, x1 = 0.2626	27.45 ± 0.56
298.15 K, x1 = 0.7568	5.03 ± 0.1
313.15 K, x1 = 0.4753	9.42 ± 0.19
318.15 K, x1 = 0.4753	8.31 ± 0.17
323.15 K, x1 = 1	1.02 ± 0.02
333.15 K, x1 = 0.2626	9.76 ± 0.2

CCCCCCCO + CCCC[n+]1ccn(C)c1.O=[N+]([O-])[O-]
100 kPa, x2 = 0
Conditions	viscosity [mPa·s]
293.15 K	7.03 ± 0.56
303.15 K	5.03 ± 0.4
313.15 K	3.71 ± 0.3
323.15 K	2.79 ± 0.22
